Literature values in patent EP4778540A1, “ANTIBODY-DRUG CONJUGATE CONTAINING HETEROCYCLIC COMPOUND HAVING ACTIVITY OF INDUCING DECOMPOSITION OF G12D MUTANT KRAS PROTEIN” (Astellas Pharma Inc., priority 2023, dated 2025).
Where a name gives a salt, the structure may show the parent alone.

Molecular target: T1, mutant RAS G12D protein (Homo sapiens, UniProt P01116, G12D)
T1 construct: endogenous in cells; host or cells: AsPC-1 (human pancreatic cancer line)
Details: human G12D mutant KRAS-positive pancreatic cancer line AsPC-1, cited from earlier work; for DC50: DC50 of D10 calculated from a molecular weight in terms of 4 hydrochloride

T1 sequence (P01116 1-188 isoform P01116-2 G12D): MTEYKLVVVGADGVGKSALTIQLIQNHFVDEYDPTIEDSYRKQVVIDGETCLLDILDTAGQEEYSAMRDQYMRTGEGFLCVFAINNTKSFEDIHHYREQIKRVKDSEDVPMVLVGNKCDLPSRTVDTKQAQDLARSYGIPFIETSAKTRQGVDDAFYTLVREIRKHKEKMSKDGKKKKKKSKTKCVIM

In the case of `Cc1c(F)cc2[nH]ncc2c1-c1c(C2CC2)cc2c(N3CC4CC3CN4)nc(OC3CCOCC3)nc2c1OCc1ccc(C(=O)N2CCN(Cc3ccc4c(c3)n(C)c(=O)n4C3CCC(=O)NC3=O)CC2C)cc1` [D9, 3-(5-{[(3S)-4-{4-[({(7M)-6-cyclopropyl-4-[(1S,4S)-2,5-diazabicyclo[2.2.1]heptan-2-yl]-7-(6-fluoro-5-methyl-1H-indazol-4-yl)-2-[(oxan-4-yl)oxy]quinazolin-8-yl}oxy)methyl]benzoyl} -3-methylpiperazin-1-yl]methyl}-3-methyl-2-oxo-2,3-dihydro-1H-benzimidazol-1-yl)piperidine-2,6-dione], the DC50 is listed as 13 nM and the Dmax is listed as 86%.
In the case of `CO[C@@H](C)COc1nc(N2C[C@@H]3C[C@H]2CN3)c2cc(C3CC3)c(-c3c(C)c(F)cc4[nH]ncc34)c(OCc3ccc(C(=O)N4CCN(Cc5ccc6c(c5)n(C)c(=O)n6C5CCC(=O)NC5=O)C[C@@H]4C)cc3)c2n1` (stereo partly drawn) [D11, 3-(5-{[(3S)-4-{4-[({(7M)-6-cyclopropyl-4-[(1S,4S)-2,5-diazabicyclo[2.2.1]heptan-2-yl]-7-(6-fluoro-5-methyl-1H-indazol-4-yl)-2-[(2S)-2-methoxypropoxy]quinazolin-8-yl}oxy)methyl]benzoyl}-3-methylpiperazin-1-yl]methyl}-3-methyl-2-oxo-2,3-dihydro-1H-benzimidazol-1-yl)piperidine-2,6-dione], the DC50 is listed as 8 nM and the Dmax is listed as 86%.
For `Cc1c(F)cc2[nH]ncc2c1-c1c(C2CC2)cc2c(N3C[C@@H]4C[C@H]3CN4)nc(OC3CCOCC3)nc2c1OCc1ccc(C(=O)N2CCN(Cc3ccc4c(N5CCC(=O)NC5=O)nn(C)c4c3)C[C@@H]2C)cc1` [D10, 1-(6-{[(3S)-4-{4-[({(7M)-6-cyclopropyl-4-[(1S,4S)-2,5-diazabicyclo[2.2.1]heptan-2-yl]-7-(6-fluoro-5-methyl-1H-indazol-4-yl)-2-[(oxan-4-yl)oxy]quinazolin-8-yl}oxy)methyl]benzoyl}-3-methylpiperazin-1-yl]methyl}-1-methyl-1H-indazol-3-yl)-1,3-diazinane-2,4-dione n-hydrochloride], the DC50 is given as 71 nM and the Dmax is given as 86%.
In the case of `COC(C)COc1nc(N(C)C2CCNC2)c2cc(C3CC3)c(-c3c(C)c(F)cc4[nH]ncc34)c(OCc3ccc(-c4cn(C(C(=O)N5CC(O)CC5C(=O)NC(CO)c5ccc(-c6scnc6C)cc5)C(C)C)nn4)cc3)c2n1` [D7, (4R)-1-[(2S)-2-{4-[4-({[(7M)-6-cyclopropyl-7-(6-fluoro-5-methyl-1H-indazol-4-yl)-2-[(2S)-2-methoxypropoxy]-4-{methyl[(3S)-pyrrolidin-3-yl]amino}quinazolin-8-yl]oxy}methyl)phenyl]-1H-1,2,3-triazol-1-yl}-3-methylbutanoyl]-4-hydroxy-N-{(1R)-2-hydroxy-1-[4-(4-methyl-1,3-thiazol-5-yl)phenyl]ethyl}-L-prolinamide], the DC50 is listed as 10 nM.
